These results are taken from ChEMBL document CHEMBL1125487, “Acetazolamide-like carbonic anhydrase inhibitors with topical ocular hypotensive activity” (J Med Chem, 1992).

Structures are written as SMILES. ≈ marks a conversion by molar mass, not a printed value. Where “and” joins values, the source holds several entries; their conditions need not be identical. Identical values can stand only once.

The target in one series is Carbonic anhydrase. The series is classed as protein assay.
Series [1] is filed under the species Oryctolagus cuniculus. The series can be described thus: Effect on intraocular pressure in right eye was tested by using transition ocular hypertension model at basal condition. Format: functional.
For series [2], the species on record is Oryctolagus cuniculus. Description: Effect on intraocular pressure in right eye was tested by using transition ocular hypertension model at 0 min. The series is classed as functional.
The species named for series [3] is Oryctolagus cuniculus. Description: Effect on intraocular pressure in right eye was tested by using transition ocular hypertension model at 10 min. The series is classed as functional.
Series [4] is filed under the species Oryctolagus cuniculus. Description: Effect on intraocular pressure in right eye was tested by using transition ocular hypertension model at 20 min. Format: functional.
The species named for series [5] is Oryctolagus cuniculus. Description: Effect on intraocular pressure in right eye was tested by using transition ocular hypertension model at 40 min. Format: functional.
Series [6] is filed under the species Oryctolagus cuniculus. The series can be described thus: Effect on intraocular pressure in left eye was tested by using transition ocular hypertension model at 20 min. Format: functional.
The species entered for series [7] is Oryctolagus cuniculus. Description: Effect on intraocular pressure in left eye was tested by using transition ocular hypertension model at 40 min. Format: functional.
The species named for series [8] is Oryctolagus cuniculus. The series can be described thus: Effect on intraocular pressure in left eye was tested by using transition ocular hypertension model at basal condition. The series is classed as functional.
The species entered for series [9] is Oryctolagus cuniculus. The series can be described thus: Effect on intraocular pressure in left eye was tested by using transition ocular hypertension model at 0 min. Format: functional.
The species named for series [10] is Oryctolagus cuniculus. Description: Effect on intraocular pressure in left eye was tested by using transition ocular hypertension model at 10 min. The series is classed as functional.
The next series in a line: physchem. The settings on record: phosphate buffer.
The conditions of series [11]: buffer.
Description: Solubility (in phosphate buffer)

Description for Carbonic anhydrase: Inhibition of Carbonic anhydrase enzyme in rabbits
Description for physchem: Solubility (in phosphate buffer)

For orientation: IC50 means the concentration needed to halve the response being measured. A higher IC50 goes with weaker potency in that assay. One may read the solubility as the dissolved amount per volume that the medium holds. A high value points to much dissolved substance. `NS(=O)(=O)c1nnc(NC(=O)CCCCCCCC(=O)O)s1` had a 50% inhibitory concentration (IC50) at Carbonic anhydrase of 480 nM. In addition, the IOP came out at 15.83 mmHg in the series listed under Oryctolagus cuniculus [1]; 16.17 mmHg in the series listed under Oryctolagus cuniculus [2]; 25.17 mmHg in the series listed under Oryctolagus cuniculus [3]; 19.5 mmHg in the series listed under Oryctolagus cuniculus [4]; 17 mmHg in the series listed under Oryctolagus cuniculus [5]; 20.67 mmHg in the series filed under Oryctolagus cuniculus [6]. The IOP in the series listed under Oryctolagus cuniculus [7] was determined as 17.5 mmHg; in the series filed under Oryctolagus cuniculus [8], 16 mmHg; in the series filed under Oryctolagus cuniculus [9] it was 16 mmHg; in the series filed under Oryctolagus cuniculus [10], 26.5 mmHg. For the same compound, the solubility in the series “physchem” came to 21.6 mM (≈ 7570 µg/mL).
Take `COC(=O)CCCCC(=O)Nc1nnc(S(N)(=O)=O)s1`: the IC50 at Carbonic anhydrase came out at 230 nM. In “physchem”, the solubility is below 1 mM.
`COC(=O)CCCCCCCC(=O)Nc1nnc(S(N)(=O)=O)s1` registered a half-inhibitory concentration (IC50) at Carbonic anhydrase of 910 nM. In the series “physchem”, the solubility was below 1 mM.
For `COC(=O)CC(=O)Nc1nnc(S(N)(=O)=O)s1`, at Carbonic anhydrase, the half-maximal inhibitory concentration (IC50) was found to be 940 nM. Besides, the IOP in the series listed under Oryctolagus cuniculus [1] is listed as 16.17 mmHg; in the series filed under Oryctolagus cuniculus [2] it was 15.87 mmHg; in the series listed under Oryctolagus cuniculus [3], 23.17 mmHg; in the series listed under Oryctolagus cuniculus [4], 19.67 mmHg; in the series listed under Oryctolagus cuniculus [5], 17 mmHg; in the series listed under Oryctolagus cuniculus [6] it was 22.5 mmHg. The IOP is 19.17 mmHg in the series filed under Oryctolagus cuniculus [7], 16.33 mmHg in the series filed under Oryctolagus cuniculus [8], 16.17 mmHg in the series filed under Oryctolagus cuniculus [9] and 27.17 mmHg in the series listed under Oryctolagus cuniculus [10]. Moreover, the solubility in “physchem” was found to be 16 mM (≈ 4480 µg/mL).
In turn, `CCC(C)OC(=O)CCC(=O)Nc1nnc(S(N)(=O)=O)s1` (stereo unspecified) had a concentration for half-maximal inhibition (IC50) on Carbonic anhydrase of 370 nM. Further, the IOP in the series listed under Oryctolagus cuniculus [1] stood at 15.67 mmHg; in the series listed under Oryctolagus cuniculus [2], 14.67 mmHg; in the series filed under Oryctolagus cuniculus [3], 21.5 mmHg; in the series filed under Oryctolagus cuniculus [4] it was 19 mmHg; in the series filed under Oryctolagus cuniculus [5], 16.67 mmHg; in the series listed under Oryctolagus cuniculus [6], 21.17 mmHg. Further, the IOP in the series listed under Oryctolagus cuniculus [7] came out at 17.17 mmHg; in the series listed under Oryctolagus cuniculus [8], 15.33 mmHg; in the series filed under Oryctolagus cuniculus [9], 15.5 mmHg; in the series filed under Oryctolagus cuniculus [10] it was 25.67 mmHg. This compound also showed a solubility in “physchem” of 3.7 mM (≈ 1240 µg/mL).
For `CCCCCOC(=O)CCC(=O)/N=c1/sc(S(N)(=O)=O)nn1C`, the 50% inhibitory concentration (IC50) at Carbonic anhydrase came out at 310 nM. The IOP in the series filed under Oryctolagus cuniculus [1] was 15.67 mmHg; in the series filed under Oryctolagus cuniculus [2] it was 15.5 mmHg; in the series listed under Oryctolagus cuniculus [3], 20.67 mmHg; in the series filed under Oryctolagus cuniculus [4] it was 25.17 mmHg; in the series filed under Oryctolagus cuniculus [5] it was 22 mmHg; in the series listed under Oryctolagus cuniculus [6] it was 20.67 mmHg. The IOP in the series filed under Oryctolagus cuniculus [7] worked out at 17.83 mmHg; in the series listed under Oryctolagus cuniculus [8] it was 15.83 mmHg; in the series filed under Oryctolagus cuniculus [9], 15.33 mmHg; in the series listed under Oryctolagus cuniculus [10] it was 24 mmHg. Moreover, in the series “physchem”, the solubility stood at 1.4 mM (≈ 510 µg/mL).
Compound `COC(=O)CCCC(=O)Nc1nnc(S(N)(=O)=O)s1` returned an IC50 against Carbonic anhydrase of 910 nM. The compound also showed a solubility in the series “physchem” of 11.5 mM (≈ 3550 µg/mL).
In turn, `CCCCCOC(=O)CCC(=O)Nc1nnc(S(N)(=O)=O)s1` showed a 50% inhibitory concentration (IC50) against Carbonic anhydrase of 390 nM. The IOP in the series listed under Oryctolagus cuniculus [1] came to 15.83 mmHg; in the series filed under Oryctolagus cuniculus [2] it was 15 mmHg; in the series listed under Oryctolagus cuniculus [3], 22.67 mmHg; in the series listed under Oryctolagus cuniculus [4], 20 mmHg; in the series listed under Oryctolagus cuniculus [5], 17.83 mmHg; in the series filed under Oryctolagus cuniculus [6], 21.33 mmHg. In addition, the IOP in the series filed under Oryctolagus cuniculus [7] is reported as 18.83 mmHg; in the series listed under Oryctolagus cuniculus [8] it was 15.67 mmHg; in the series filed under Oryctolagus cuniculus [9], 15.67 mmHg; in the series listed under Oryctolagus cuniculus [10], 24.5 mmHg. For the same compound, in the series “physchem”, the solubility amounted to 1.3 mM (≈ 456 µg/mL).
Regarding `NS(=O)(=O)c1nnc(NC(=O)CCCCC(=O)O)s1`, the IOP in the series listed under Oryctolagus cuniculus [1] came out at 16.83 mmHg; in the series listed under Oryctolagus cuniculus [2], 16.33 mmHg; in the series listed under Oryctolagus cuniculus [4], 20 mmHg; in the series filed under Oryctolagus cuniculus [5] it was 17.17 mmHg; in the series listed under Oryctolagus cuniculus [6] it was 21.67 mmHg; in the series listed under Oryctolagus cuniculus [7], 18 mmHg. In addition, the IOP was 16.33 mmHg in the series filed under Oryctolagus cuniculus [8]; 16.17 mmHg and 22 mmHg in the series listed under Oryctolagus cuniculus [9]; 25.17 mmHg in the series filed under Oryctolagus cuniculus [10]. In “physchem”, the solubility is 25 mM (≈ 7710 µg/mL).
Turning to `CCOC(=O)CCC(=O)Nc1nnc(S(N)(=O)=O)s1`, the IOP in the series filed under Oryctolagus cuniculus [1] is reported as 15.33 mmHg; in the series listed under Oryctolagus cuniculus [2], 13.33 mmHg; in the series listed under Oryctolagus cuniculus [3], 20.33 mmHg; in the series filed under Oryctolagus cuniculus [4], 17.33 mmHg; in the series listed under Oryctolagus cuniculus [5], 15.67 mmHg; in the series filed under Oryctolagus cuniculus [6] it was 20.67 mmHg. The IOP in the series listed under Oryctolagus cuniculus [7] came out at 17.67 mmHg; in the series listed under Oryctolagus cuniculus [8], 15.33 mmHg; in the series filed under Oryctolagus cuniculus [9] it was 15.5 mmHg; in the series filed under Oryctolagus cuniculus [10], 25.67 mmHg. Also, in the series “physchem”, the solubility was found to be 8.9 mM (≈ 2740 µg/mL).
At Carbonic anhydrase, `NCCCCC(=O)Nc1nnc(S(N)(=O)=O)s1` registered a concentration for half-maximal inhibition (IC50) of 440 nM. Further, the IOP in the series filed under Oryctolagus cuniculus [1] is 15.83 mmHg; in the series filed under Oryctolagus cuniculus [2] it was 15 mmHg; in the series listed under Oryctolagus cuniculus [3], 24 mmHg; in the series filed under Oryctolagus cuniculus [4] it was 20.83 mmHg; in the series listed under Oryctolagus cuniculus [5] it was 16.83 mmHg; in the series listed under Oryctolagus cuniculus [6], 21.5 mmHg. Besides, the IOP in the series filed under Oryctolagus cuniculus [7] worked out at 17.33 mmHg; in the series listed under Oryctolagus cuniculus [8], 15.5 mmHg; in the series listed under Oryctolagus cuniculus [9] it was 15.83 mmHg; in the series filed under Oryctolagus cuniculus [10] it was 26.17 mmHg. The same compound yielded a S in series [11] of 8.8 mM.
As for `COC(=O)CCC(=O)/N=c1/sc(S(N)(=O)=O)nn1C`, the concentration for half-maximal inhibition (IC50) against Carbonic anhydrase turned out to be 450 nM. For the same compound, the IOP in the series listed under Oryctolagus cuniculus [1] was determined as 15.5 mmHg; in the series filed under Oryctolagus cuniculus [2], 14.83 mmHg; in the series listed under Oryctolagus cuniculus [3], 24.67 mmHg; in the series listed under Oryctolagus cuniculus [4] it was 20.83 mmHg; in the series filed under Oryctolagus cuniculus [5], 17.33 mmHg; in the series filed under Oryctolagus cuniculus [6] it was 21.5 mmHg. Moreover, the IOP in the series listed under Oryctolagus cuniculus [7] came out at 17.83 mmHg; in the series listed under Oryctolagus cuniculus [8], 15.33 mmHg; in the series filed under Oryctolagus cuniculus [9], 16 mmHg; in the series filed under Oryctolagus cuniculus [10], 25.83 mmHg. For the same compound, the solubility in “physchem” is 7.3 mM (≈ 2250 µg/mL).
At Carbonic anhydrase, `NS(=O)(=O)c1nnc(NC(=O)CCCC(=O)O)s1` registered a concentration for half-maximal inhibition (IC50) of 520 nM. The IOP in the series filed under Oryctolagus cuniculus [1] is reported as 15.5 mmHg; in the series filed under Oryctolagus cuniculus [2], 14.67 mmHg; in the series listed under Oryctolagus cuniculus [3] it was 21.17 mmHg; in the series filed under Oryctolagus cuniculus [4], 19 mmHg; in the series listed under Oryctolagus cuniculus [5], 16.5 mmHg; in the series filed under Oryctolagus cuniculus [6], 22 mmHg. The IOP in the series listed under Oryctolagus cuniculus [7] is reported as 17.83 mmHg; in the series listed under Oryctolagus cuniculus [8], 15.5 mmHg; in the series listed under Oryctolagus cuniculus [9] it was 15.33 mmHg; in the series listed under Oryctolagus cuniculus [10], 25.5 mmHg. Also, the solubility in the series “physchem” was 31 mM (≈ 9120 µg/mL).
`CCCCCCCCCCCCOC(=O)CCC(=O)Nc1nnc(S(N)(=O)=O)s1`: at Carbonic anhydrase, the half-maximal inhibitory concentration (IC50) worked out at 520 nM. This lies in the sub-micromolar range.
On Carbonic anhydrase, `COC(=O)CCC(=O)Nc1nnc(S(N)(=O)=O)s1` came in with a 50% inhibitory concentration (IC50) of 550 nM. Further, the IOP in the series listed under Oryctolagus cuniculus [1] was determined as 15.67 mmHg; in the series listed under Oryctolagus cuniculus [2], 15.17 mmHg; in the series listed under Oryctolagus cuniculus [3], 25.33 mmHg; in the series listed under Oryctolagus cuniculus [4] it was 19.5 mmHg; in the series filed under Oryctolagus cuniculus [5] it was 16.5 mmHg; in the series listed under Oryctolagus cuniculus [6], 20.17 mmHg. The IOP in the series listed under Oryctolagus cuniculus [7] was 16.67 mmHg; in the series filed under Oryctolagus cuniculus [8], 15.83 mmHg; in the series filed under Oryctolagus cuniculus [9], 16.17 mmHg; in the series listed under Oryctolagus cuniculus [10], 25.5 mmHg. Moreover, the solubility in the series “physchem” came to 3.2 mM (≈ 942 µg/mL).
For the compound `CC(C)(C)NC[C@H](O)COc1nsnc1N1CCOCC1` [TIMOLOL], the IOP worked out at 18.53 mmHg in the series filed under Oryctolagus cuniculus [1]; 15.77 mmHg in the series listed under Oryctolagus cuniculus [2]; 18.57 mmHg in the series listed under Oryctolagus cuniculus [3]; 19.38 mmHg in the series listed under Oryctolagus cuniculus [4]; 18.77 mmHg in the series listed under Oryctolagus cuniculus [5]; 21.97 mmHg in the series filed under Oryctolagus cuniculus [6]. In addition, the IOP in the series listed under Oryctolagus cuniculus [7] was found to be 18.77 mmHg; in the series listed under Oryctolagus cuniculus [8], 18.53 mmHg; in the series listed under Oryctolagus cuniculus [9], 16.84 mmHg; in the series listed under Oryctolagus cuniculus [10], 25.84 mmHg.
